Data as given in ChEMBL document CHEMBL1201862, “PubChem BioAssay data set” (2004).
Active and inactive are the calls of the source. Rule as the data show it, for most assays here: actives have a measured EC50 and inactives only a lower limit.

How the values were obtained:
Streptokinase A = molecular target: T1, Streptokinase A (Streptococcus pyogenes serotype M1, UniProt P10520); test: viability-normalized secreted streptokinase activity reduction – plasminogen activation absorbance, OD405, dose response (AID 1914); format: functional, Streptococcus pyogenes M1 GAS;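 also: secreted streptokinase activity via plasminogen activation per viability signal from cell pellet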
T1 sequence (P10520 whole entry): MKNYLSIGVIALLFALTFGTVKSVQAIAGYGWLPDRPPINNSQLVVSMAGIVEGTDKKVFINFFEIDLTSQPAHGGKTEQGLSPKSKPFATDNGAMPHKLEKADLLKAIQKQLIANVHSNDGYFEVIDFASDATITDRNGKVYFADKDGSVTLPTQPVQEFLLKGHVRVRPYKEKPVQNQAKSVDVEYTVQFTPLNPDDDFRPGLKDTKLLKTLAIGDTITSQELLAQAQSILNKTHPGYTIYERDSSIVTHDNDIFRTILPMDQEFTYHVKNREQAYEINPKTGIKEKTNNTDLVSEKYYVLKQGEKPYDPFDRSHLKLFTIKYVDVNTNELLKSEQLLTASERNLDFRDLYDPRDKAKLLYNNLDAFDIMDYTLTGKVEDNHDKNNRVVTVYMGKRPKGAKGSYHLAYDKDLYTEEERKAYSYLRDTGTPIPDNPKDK

[1] = tested on: Streptococcus sp. 'group A'; test: Streptococcus pyogenes SK(-)GAS viability under kanamycin – luminescence, BacTiterGlo, confirmation, counter-screen for streptokinase expression inhibitor project, dose response (AID 1900); format: functional, organism-based
Streptococcus = test: GAS UMAA2166 growth inhibition – luminescence, BacTiterGlo, counter-screen for streptokinase expression inhibitor project, dose response (AID 1915); format: functional, organism-based;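 also: potency for reduction of bacterial viability or growth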
[2] = viability of uninfected HEp-2 cells – cell-based, HTS, cytotoxicity control for RSV inhibitor project, dose response (AID 2410); format: functional; conditions: human respiratory syncytial virus
Cytochrome P450 1A2 = molecular target: T2, Cytochrome P450 1A2 (Homo sapiens, UniProt P05177);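 also: PubChem cytochrome P450 panel assay, CYP1A2 panel member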
T2 sequence (P05177 whole entry): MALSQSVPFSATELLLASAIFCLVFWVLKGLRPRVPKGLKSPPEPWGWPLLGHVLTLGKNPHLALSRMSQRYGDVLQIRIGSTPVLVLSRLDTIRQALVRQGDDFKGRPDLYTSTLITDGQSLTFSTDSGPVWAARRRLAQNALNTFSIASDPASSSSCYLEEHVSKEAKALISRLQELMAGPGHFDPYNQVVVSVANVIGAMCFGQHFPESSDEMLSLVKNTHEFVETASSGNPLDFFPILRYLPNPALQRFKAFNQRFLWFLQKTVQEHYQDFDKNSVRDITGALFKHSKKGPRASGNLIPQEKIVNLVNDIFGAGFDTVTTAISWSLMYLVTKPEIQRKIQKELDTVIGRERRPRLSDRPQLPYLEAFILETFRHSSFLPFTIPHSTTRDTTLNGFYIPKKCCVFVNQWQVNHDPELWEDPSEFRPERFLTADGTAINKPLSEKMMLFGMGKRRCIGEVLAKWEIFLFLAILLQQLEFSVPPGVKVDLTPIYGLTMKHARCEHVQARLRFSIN

[3] = NIH3T3 cell viability loss – ATP luminescence, mouse fibroblasts, counter-screen, dose response (AID 2010); format: functional, cell-based;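 also: cells exposed to compound for about 90 hours before reading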
[4] = Trypanosoma cruzi growth suppression in host cells – NIH3T3 host cells, beta-gal luminescence, confirmation (AID 2044); format: functional, cell-based;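 also: intracellular parasites grown in NIH/3T3 mouse fibroblasts as host cells; luminescent beta-galactosidase reporter signal from transgenic T. cruzi replicating inside host cells; inhibitors lower the luminescence signal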
[5] = Luminescence Cell-Based Dose Retest to Confirm Inhibitors of Cancer Stem Cells. [Related pubchem assays (depositor defined):AID2717, AID2721]; format: functional; conditions: Homo sapiens
INS1 = test: INS-1E survival protection against cytokine death – cell-based, luminescence, retest, dose response (AID 449756); format: functional; conditions: Rattus norvegicus;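 also: cell death triggered by IL-1 beta plus TNF-alpha plus IFN-gamma mixture; protective hits raise ATP signal compared with cytokine alone wells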

SMILES: Cc1cc(C)nc(NC(=N)NCCc2c[nH]c3ccccc23)n1
- EC50 (Streptokinase A): > 150 µM (not active)
- EC50 [1]: 7.95 µM (active)
- EC50 (Streptococcus): > 150 µM (not active)

SMILES: CCOCCCN=C(S)N1CCCN(c2nc3cc(C)cc(C)c3cc2C#N)CC1
- CC50 [2]: 31.4 µM (active)

SMILES: CNc1nc(OC)nc(N(C#N)CN2C(=O)c3ccccc3S2(=O)=O)n1
- EC50 (Streptokinase A): > 150 µM (not active)
- EC50 [1]: > 150 µM (not active)
- EC50 (Streptococcus): > 150 µM (not active)

SMILES: N#CCCn1c(=O)c(-c2ccccc2)nc2cnc(Nc3ccccc3)nc21
- AC50 (Cytochrome P450 1A2): 0.794 µM (inconclusive)

SMILES: COc1ccc(/C=C2\SC(=S)N(NS(=O)(=O)c3ccccc3)C2=O)c(OC)c1
- CC50 [2]: 35.4 µM (active)

SMILES: CCC(C)Sc1ccc(-c2nc3ccc(C)cn3c2NC2CCCCC2)cc1 (stereo unspecified)
- EC50 [3]: > 60 µM (not active)
- EC50 [4]: 0.885 µM (active)

SMILES: COc1ccc(OC)c(NC(=O)c2cccc(Cn3cc(Br)c([N+](=O)[O-])n3)c2)c1
- EC50 [3]: 9.07 µM (active)
- EC50 [4]: 0.794 µM (active)

SMILES: COc1cc(C(=O)NCCCN(C)C)ccc1OCC(=O)Nc1cccc(C(F)(F)F)c1
- EC50 [3]: > 60 µM (not active)
- EC50 [4]: 1.23 µM (active)

SMILES: Cc1ccc(C)c(OCCCCN2CCNCC2)c1C
- AC50 [5]: 1.03 µM (active)

SMILES: O=C(c1cc2sccc2n1Cc1ccc(F)cc1)N1CCc2ccccc21
- CC50 [2]: 36.2 µM (active)

SMILES: CN(C)S(=O)(=O)Oc1ccsc1C(=O)Nc1cccc(Cl)c1Cl
- EC50 [3]: > 60 µM (not active)
- EC50 [4]: 3.47 µM (active)

SMILES: CCOC(=O)CC(=O)CSc1nc(N)c(C#N)c(-c2ccc(Cl)cc2)c1C#N
- CC50 [2]: 23.6 µM (active)

SMILES: Cc1ccc(-c2cc(C(F)F)nc(NCc3cccnc3)n2)cc1
- EC50 [3]: > 60 µM (not active)
- EC50 [4]: 3.05 µM (active)

SMILES: CCOc1ccc(CNCCCSc2ncccn2)cc1
- EC50 [3]: 9.74 µM (active)
- EC50 [4]: 0.909 µM (active)

SMILES: Cc1ccc(C)c(N2CCN(C(=O)c3ccc4c(c3)c(C)c(C)n4C)CC2)c1
- AC50 [5]: 6.01 µM (active)

SMILES: O=C(O)c1ccccc1NCn1c(=S)sc2ccccc21
- AC50 (Cytochrome P450 1A2): 0.501 µM (inconclusive)

SMILES: COCC(C)n1c(SCc2ccc(OC)c(F)c2)nc2ccccc2c1=O (stereo unspecified)
- EC50 [3]: > 60 µM (not active)
- EC50 [4]: 2.17 µM (active)

SMILES: CN1[C@@H]2CC[C@H]1CC(OC(=O)c1cc(Cl)cc(Cl)c1)C2 (stereo partly specified)
- AC50 (Cytochrome P450 1A2): 31.6 µM (inconclusive)

SMILES: COc1ccc(Br)cc1C(=O)Nc1cccc(C)c1
- AC50 [5]: > 195 µM (inactive)

SMILES: O=C(Nc1ccccc1-c1nc2ccccc2[nH]1)c1ccc(S(=O)(=O)N2CCCCC2)cc1
- AC50 (Cytochrome P450 1A2): 3.55 µM (inconclusive)

SMILES: O=C(NCCc1ccccn1)c1ccc(OC2CCN(Cc3ccccn3)CC2)cc1
- EC50 (Streptokinase A): > 150 µM (not active)
- EC50 [1]: > 150 µM (not active)
- EC50 (Streptococcus): > 150 µM (not active)

SMILES: CC1CCN(c2ccc(NC(=O)c3ccc([N+](=O)[O-])o3)cc2)CC1
- EC50 [3]: 4.41 µM (active)
- AC50 (INS1): 10.3 µM (active)
- EC50 [4]: > 16 µM (not active)

SMILES: CN(C)CCCNS(=O)(=O)c1ccc(NC2CCCCCC2)c([N+](=O)[O-])c1
- AC50 (INS1): 6.22 µM (active)

SMILES: O=C(NNC(=S)NC(=O)c1ccccc1)c1cccc([N+](=O)[O-])c1
- EC50 [1]: 3.85 µM (active)
- EC50 (Streptococcus): 8.75 µM (active)

SMILES: Cc1ccc(C)c(S(=O)(=O)NC(C)C(=O)Nc2ccc(-c3nc4ccccc4s3)cc2)c1 (stereo unspecified)
- AC50 (Cytochrome P450 1A2): 15.8 µM (inconclusive)

SMILES: COc1ccc2nc(NC(=S)NC(=O)c3ccco3)sc2c1
- CC50 [2]: > 50 µM (active)

SMILES: O=C(c1ccco1)N1CCC2(CCCN(Cc3ccncc3)C2)CC1
- AC50 (Cytochrome P450 1A2): 15.8 µM (inconclusive)

SMILES: COCc1cc(C)nc2sc(C(=O)NN)c(-n3cccc3)c12
- CC50 [2]: 14.3 µM (active)

SMILES: Cc1cc(C)nc(NC(=O)/C=C/c2ccc3c(c2)OCO3)c1
- AC50 [5]: 1.91 µM (active)

SMILES: COc1cc(NC(=O)Nc2cccc(Cl)c2)c(OC)cc1NC(=O)CN1CCCCC1
- AC50 [5]: 4.44 µM (active)

SMILES: COC(=O)NC(=S)Nc1ccc(Oc2ccc(Cl)cc2)c(Cl)c1
- EC50 [3]: > 60 µM (not active)
- EC50 [4]: 2.41 µM (active)

SMILES: CCN(CC)S(=O)(=O)c1ccc(Cl)c(C(=O)Nc2ccc(Cl)cc2[N+](=O)[O-])c1
- AC50 (INS1): 7.83 µM (active)

SMILES: CCOC(=O)C1(S(=O)(=O)c2ccc(Cl)cc2)CCN(Cc2ccc(Cl)cc2)CC1
- AC50 (Cytochrome P450 1A2): 31.6 µM (inconclusive)

SMILES: Cc1c(CCC(=O)O)c(=O)oc2cc3occ(-c4ccc(Cl)cc4)c3cc12
- EC50 (Streptokinase A): > 150 µM (not active)
- EC50 [1]: 7.96 µM (active)
- EC50 (Streptococcus): > 150 µM (not active)

SMILES: Cc1nc(O)c(C#N)c(Nc2ccc(Cl)cc2)n1
- CC50 [2]: 32.3 µM (active)

SMILES: Cc1ccc(CN(Cc2cccnc2)C(=O)CN2C(=O)COc3ccccc32)o1
- EC50 [3]: > 60 µM (not active)
- EC50 [4]: 0.276 µM (active)

SMILES: CCCOc1ccc2c3c(c(=O)oc2c1OCCC)CCCC3
- CC50 [2]: 23.5 µM (active)
- AC50 (INS1): 13.7 µM (active)

SMILES: Cc1cccc(-n2c(N)c(-c3nc4ccccc4n3C)c3nc4ccccc4nc32)c1
- EC50 (Streptokinase A): > 150 µM (not active)
- EC50 [1]: 3.66 µM (active)
- EC50 (Streptococcus): > 150 µM (not active)

SMILES: CC(C)[C@H](NC(=O)N1CC(=O)Nc2ccccc21)C(=O)N[C@@H](Cc1ccccc1)C(=O)O
- EC50 (Streptokinase A): > 150 µM (not active)
- EC50 [1]: > 150 µM (not active)
- EC50 (Streptococcus): > 150 µM (not active)

SMILES: FCCCOc1ccc(-c2nccc(-c3ccc(F)cc3)n2)cc1
- CC50 [2]: 26 µM (active)

SMILES: O=C(Nc1nc2cc3c(cc2s1)OCO3)C1CC1
- EC50 [3]: > 60 µM (not active)
- EC50 [4]: 1.3 µM (active)

SMILES: COc1ccc(NC(=O)/C=C/c2cccc(F)c2)cn1
- CC50 [2]: 34.7 µM (active)

SMILES: Cc1cc(C(=O)CSc2nnc(N)s2)c(C)n1CCc1ccc(Cl)cc1
- CC50 [2]: 17.1 µM (active)

SMILES: O=C(CCn1ccnc1)Nc1ccc2ccccc2c1
- EC50 [3]: > 60 µM (not active)
- EC50 [4]: 1.63 µM (active)

SMILES: Cc1sc2[nH]c(-c3ccccn3)nc(=O)c2c1-c1ccccc1
- EC50 (Streptokinase A): > 150 µM (not active)

SMILES: CCNC(=O)COC(=O)/C=C/c1c(C)nn(Cc2cccc(OC)c2)c1Cl
- CC50 [2]: > 50 µM (active)

SMILES: C[C@H](CO)N1C[C@H](C)[C@@H](CN(C)S(=O)(=O)c2ccccc2)Oc2ccc(NC(=O)Nc3ccc(C(F)(F)F)cc3)cc2C1=O
- AC50 [5]: 8.42 µM (active)

SMILES: NS(=O)(=O)c1ccc(NCc2cnc3ccccc3c2)cc1
- AC50 (Cytochrome P450 1A2): 1.58 µM (inconclusive)

SMILES: CN(C)CC(C)(C)C/N=C/c1c(O)[nH]c2ccccc12
- EC50 [3]: > 30 µM (not active)
- EC50 [4]: 0.152 µM (active)

SMILES: COc1cc([N+](=O)[O-])cc(/C=N/NC(=O)C(C)Nc2cccc(C)c2)c1O (stereo unspecified)
- EC50 (Streptokinase A): > 150 µM (not active)
- EC50 [1]: 10.9 µM (active)
- EC50 (Streptococcus): > 150 µM (not active)

SMILES: COc1ccc(C(=O)N/N=C(\C)Cn2nc([N+](=O)[O-])cc2C)cc1
- AC50 (Cytochrome P450 1A2): 20 µM (inconclusive)
